Eight molecules from patent publication US9861703B2 (Jinan Platinum Pharmatech Co. Ltd., priority 2013, dated 2018) can be followed below.

For series [1], the target named is T1, Aminopeptidase N (Sus scrofa, UniProt P15145).
T1 construct: purchased Sigma
T1 sequence (P15145 1-963): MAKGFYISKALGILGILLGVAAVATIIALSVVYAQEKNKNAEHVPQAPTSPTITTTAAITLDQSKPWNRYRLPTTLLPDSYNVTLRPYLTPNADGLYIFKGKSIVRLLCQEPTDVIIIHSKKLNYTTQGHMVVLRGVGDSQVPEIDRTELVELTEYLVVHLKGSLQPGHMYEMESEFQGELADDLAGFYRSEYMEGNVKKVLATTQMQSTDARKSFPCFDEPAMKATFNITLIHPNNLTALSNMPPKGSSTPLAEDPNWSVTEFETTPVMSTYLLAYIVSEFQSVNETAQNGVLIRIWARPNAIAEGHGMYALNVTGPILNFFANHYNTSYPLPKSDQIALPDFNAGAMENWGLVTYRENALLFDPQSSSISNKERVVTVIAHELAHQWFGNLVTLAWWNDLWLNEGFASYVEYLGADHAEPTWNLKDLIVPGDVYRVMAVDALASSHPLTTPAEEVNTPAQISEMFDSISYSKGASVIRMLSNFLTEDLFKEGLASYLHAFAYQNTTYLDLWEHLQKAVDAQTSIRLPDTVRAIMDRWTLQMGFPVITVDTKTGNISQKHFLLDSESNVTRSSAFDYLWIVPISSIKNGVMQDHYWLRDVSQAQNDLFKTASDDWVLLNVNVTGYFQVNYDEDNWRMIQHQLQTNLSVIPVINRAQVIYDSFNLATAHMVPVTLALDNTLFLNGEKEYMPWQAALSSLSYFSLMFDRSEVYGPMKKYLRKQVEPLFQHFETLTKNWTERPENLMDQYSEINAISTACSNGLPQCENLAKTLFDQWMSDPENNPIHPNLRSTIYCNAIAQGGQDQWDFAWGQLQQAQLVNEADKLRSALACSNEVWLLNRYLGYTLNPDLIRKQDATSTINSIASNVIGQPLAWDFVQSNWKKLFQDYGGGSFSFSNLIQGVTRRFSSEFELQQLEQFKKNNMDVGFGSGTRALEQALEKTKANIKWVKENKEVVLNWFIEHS
Description: Inhibition activity against enzyme in vitro (aminopeptidase N, L-Leu-p-nitroanilide substrate). To be noted: for IC50: 37° C., 0.5 h, absorbance 405 nm, PBS pH 7.2, read-out: IC50(μM) APN. It counts as biochemical. The protocol:
Aminopeptidase N and L-Leu-p-nitroanilide as substrate were purchased from Sigma cooperation.
Preparation of Buffer Solution: 12.89 g Na2HPO4.12H2O and 2.18 g NaH2PO4.2H2O were dissolved in a 1000 mL volumetric flask, then the mixture was diluted to 1000 mL with fresh distilled water to obtain 50 mM Phosphate Buffer solution (PBS, pH 7.2), which was kept at room temperature to spare.
Aminopeptidase N was dissolved in the buffer solution to obtain 0.1 IU/mL solution.
The substrate was dissolved in DMSO to obtain a […] solution, which was kept in refrigerator to spare.
The aminopeptidase N solution 10 μL, the substrate solution 5 μL and compound with different concentration 40 μL were added into a 96-well cell plate, and then adjusted to 200 μL with phosphate buffer saline solution (pH 7.2). […] And the substrate solution 5 μL of blank group was adjusted to 200 μL with buffer solution. The mixture was incubated at 37° C. for 0.5 h, and absorbance was then determined at 405 nm wavelength Inhibitory ratio can be calculated as follows: […]
According to concentration of compound and corresponding inhibitory ratio, the IC50 value was calculated by using a fitting curve of Origin 7.5 software.

The subject of series [2] is 7 cell lines (ES-2, K562, PC-3, MCF-7, Hela, H7402, 3-AO). Description: MTT proliferation inhibition, all 7 tumor cell lines (summary in words). It counts as cell-based. The method, then: (§1) Human leukemia cell line K562, clear-cell ovarian carcinoma cell line ES-2, human prostate cancer cell line PC-3, human breast cancer cell line MCF-7, cell line Hela, human liver cancer cell line H7402 and human ovarian cancer cell line 3-AO were transferred into a culture flask and were cultured in a medium at 37° C. in a 5% CO2 and saturation humidity. One bottle of cells in logarithmic growth phase was picked out and was blew and beaten to be uniform with a pipette, then took some cell suspension solution to prepare blood counting plate smear to count cells under inverted microscope, and then adjusted the cell number to be 1×10^5/mL by adding some culture medium. Cells were seeded on a 96-well plate on which also drug tests performed. Blank control group, negative control group, positive control group and drug test group were established on the plate while the surrounding wells of the plate were not used (but filled with sterile PBS), wherein the blank control groups were prepared by addition of culture medium 150 μL per well, the negative control groups were prepared by addition of cell suspension solution 100 μL per well and culture medium 50 μL per well, the positive control groups were prepared by addition of cell suspension solution 100 μL per well and positive control drug solution 50 μL per well, the drug test groups were prepared by addition of cell suspension solution 100 μL per well and test compound solution 50 μL per well, and there were 5 different concentrations of drug in the positive control group and the drug test group respectively: 0.01, 0.1, 1, 10, 100 μmol·L^−1, each concentration was established with 3 parallel wells. After the drug was added, the 96-well plate was incubated for 48 h at 37° C. in a CO2 incubator of 5% CO2 and saturation humidity. Upon completion of the incubation, 20 μL MTT solution (concentration was 5 mg/mL) was added to each well and incubated for an additional 4 h, and after the 96-well plate was centrifuged at 2000 rpm for 30 min, medium of each well was suck out carefully and removed and 100 μL DMSO was added instead, followed by vibrating on a tablet shaker for 15 min to re-dissolve formazan crystals completely. OD value of each well was measured at 570 nm wavelength using an enzyme-linked immunosorbent assay reader to calculate cellular proliferation inhibitory ratio of each drug in different concentrations. And half-inhibitory concentration (IC50) was calculated using statistical software SPSS 16.0, wherein the cellular proliferation inhibitory ratio can be calculated as following equation: […]

The test system of series [3] is clear-cell ovarian carcinoma cell line ES-2. Description: MTT proliferation inhibition, ES-2. It counts as cell-based. The note with it: 48 h. The protocol: as §1
The test system of series [4] is human ovarian cancer cell line 3-AO. Nature of the series: MTT proliferation inhibition, 3-AO. To be noted: 48 h. It counts as cell-based. The method, then:
as §1

Series [5] has as its system cell line Hela. Description: MTT proliferation inhibition, Hela. It counts as cell-based. The note with it: 48 h. The protocol: as §1
Series [6] deals with human breast cancer cell line MCF-7. Nature of the series: MTT proliferation inhibition, MCF-7. Format: cell-based. The method, then: as §1
The test system of series [7] is human liver cancer cell line H7402. Description: MTT proliferation inhibition, H7402. Format: cell-based. The protocol:
as §1

The test system of series [8] is human prostate cancer cell line PC-3. Nature of the series: MTT proliferation inhibition, PC-3. To be noted: 48 h. Format: cell-based. The protocol:
as §1

The test system of series [9] is human leukemia cell line K562. Nature of the series: MTT proliferation inhibition, K562. It counts as cell-based. The method, then: as §1
For series [10], the system named is H22 tumor cells. Description: Activities of compounds in H22 tumor cells bearing Kunming mice models (Example 34). To be noted: intravenous injection, 58.3 mg/kg/d (0.1 mmol/kg/d).
Description: The ascites was extracted from H22 tumour bearing mice with well growth, followed by adding sterile PBS to dilute the ascites to a concentration of 8.5×10^7 cells/mL. 100 uL of the cells solution was suck up by a 1 mL sterile injector to inoculate into right oxter of mice. After 3 days, the mice were weighted and randomized to several groups (almost 8 mice per group, and a bit more in control group). These mice were administrated a predetermined dosage by intravenous or oral gavage with two days off when having administrated for 5 days until two cycles one of which had 7 days. The body weight of mouse was recorded at the beginning and ending of every cycle,
After being administrated for two cycles, the mice were weighted and recorded, then sacrificed by cervical dislocation to get lung, liver and spleen weighted respectively.
Overall difference was calculated by the function of one-way analysis of variance (One-Way ANOVA) in Origin 7.5 software; and t-test was used for pair-comparison between drug administrated group and blank group, and the inhibitory ratio of drug in each group was calculated based on the following equation: inhibitory ratio (100%)=(mean tumor weight of control group−mean tumor weight of drug administrated group)/mean tumor weight of control group×100.

Where a name gives a salt, the structure may show the parent alone.

The IC50 is the concentration that inhibits the measured activity by half. Consider `CC(C)C[C@H](NC(=O)[C@@H](O)[C@H](N)Cc1ccccc1)C(=O)NCCCCCC(=O)OCn1cc(F)c(=O)[nH]c1=O` [BC-06, hydrochloride], for which, in series [1], the “inhibitory activity against aminopeptidase N compared with positive control ubenimex” value is given as “much more potent than the positive control drug ubenimex” and the IC50 amounted to 4.66 µM.

Broadly, the EC50 is the concentration at which the effect is half-maximal. Lower therefore signals a more potent agent. For the molecule “(S)-2-((2S,4S)-4-((2S,4S,5R,6S)-4-((tert-butoxycarbonyl)amino)-5-hydroxy-6-methyl-2(2H)-tetrahydropyranyloxy))-2,5,12-trihydroxy-7-methoxy-6,11-dioxo-2-(1,2,3,4,6,11-hexahydrotetracenyl)-2-ethoxy-2-((2S,3R)-3-amino-2-hydroxy-4-phenylbutyryl)-4-methylpentanoate hydrochloride [Compound 28]”, in series [1], the “inhibitory activity against aminopeptidase N compared with positive control ubenimex” value is on record as “comparable activity with ubenimex”. The IC50 in series [1] amounted to 5.56 µM. Moreover, the “anti-proliferation effect against all the tumor cells” value in [2] is “obvious anti-proliferation effect”. For the same molecule, the “proliferation inhibition activity compared with 5-FU” value in series [2] was “much more potent than 5-FU”. Moreover, the EC50 in series [3] stood at 3.34 µM; in series [4], 3.02 µM; in [5], 1.99 µM; in series [6] (48 h), 2.55 µM; in [7] (48 h), 4.02 µM; in series [8], 7.67 µM. In [9] (48 h), this molecule gave an EC50 of 4.35 µM.

For the molecule `CC(C)C[C@H](NC(=O)[C@@H](O)[C@H](N)Cc1ccccc1)C(=O)NCCC(=O)OCn1cc(F)c(=O)[nH]c1=O` [BC-04, (5-fluoro-2,4-dioxo-3,4-dihydropyrimidinyl-1(2H))methyl-4-((S)-2-((2S,3R)-3-amino-2-hydroxy-4-phenylbutanamido)-4-methylpentanamido)propanoate hydrochloride], in series [1], the “inhibitory activity against aminopeptidase N compared with positive control ubenimex” value is listed as “much more potent than the positive control drug ubenimex” and the IC50 is 1.3 µM.

With `CC(C)C[C@H](NC(=O)[C@@H](O)[C@H](N)Cc1ccccc1)C(=O)ONC(N)=O` [Compound 22, (2S,3R)-3-amino-2-hydroxy-N—((S)-4-methylvaleryl)oxy)ureido)-4-phenylbutanamide hydrochloride], in series [1], the “inhibitory activity against aminopeptidase N compared with positive control ubenimex” value is “comparable activity with ubenimex”. In series [1], the IC50 worked out at 2.92 µM. Moreover, the “anti-proliferation effect against all the tumor cells” value in series [2] was “obvious anti-proliferation effect”. The “proliferation inhibition activity compared with 5-FU” value in [2] is listed as “much more potent than 5-FU”. Also, the EC50 in [3] (Ovarian carcinoma cell) stood at 5.66 µM; in series [4] (Homo sapiens) it was 9.06 µM; in series [5] (Homo sapiens) it was 5.55 µM; in [6] (Homo sapiens, MCF7, 48 h), 6.74 µM; in series [7] (Homo sapiens, H7402, 48 h), 7.98 µM; in series [8] (Homo sapiens) it was 13.3 µM. This molecule also gave an EC50 in [9] (Homo sapiens, K562, 48 h) of 6.52 µM.

Take `CC(C)C[C@H](NC(=O)[C@@H](O)[C@H](N)Cc1ccccc1)C(=O)NCCCC(=O)OCn1cc(F)c(=O)[nH]c1=O` [BC-05, (5-fluoro-2,4-dioxo-3,4-dihydropyrimidinyl-1(2H))methyl-6-((S)-2-((2S,3R)-3-amino-2-hydroxy-4-phenylbutanamido)-4-methylpentanamido)butanoate hydrochloride]: in series [1], the “inhibitory activity against aminopeptidase N compared with positive control ubenimex” value was “much more potent than the positive control drug ubenimex” and the IC50 was 1.39 µM.

Take `CC(C)C[C@H](NC(=O)[C@@H](O)[C@H](N)Cc1ccccc1)C(=O)N1CCC[C@H]1C(=O)OCn1cc(F)c(=O)[nH]c1=O` [BC-07, (S)-(5-fluoro-2,4-dioxo-3,4-dihydropyrimidinyl-1(2H))methyl-1-((S)-2-((2S,3R)-3-amino-2-hydroxy-4-phenylbutanamido)-4-methylpentanamido)-2-tetrahydropyrrolidine carboxylate hydrochloride]: in series [1], the “inhibitory activity against aminopeptidase N compared with positive control ubenimex” value is reported as “much more potent than the positive control drug ubenimex” and the IC50 turned out to be 0.15 µM. Also, the “Number of mice alive” value in series [10] (8 mice, two cycles) amounted to 6. Further, in series [10] (after two cycles), the “Tumor growth inhibition (%)” value is recorded as 43.61% and the “Tumor weight” value amounted to 0.34 ± 0.24 g. Moreover, the “Body weight(g) Beginning” value in [10] (beginning) amounted to 32.17 ± 3.86 g. Also, the “Body weight(g) Ending” value in [10] (ending) is recorded as 31.44 ± 5.01 g.

In the case of `CC(C)C[C@H](NC(=O)[C@@H](O)[C@H](N)Cc1ccccc1)C(=O)O` [ubenimex, Ubenimex, reference compound], the EC50 was more than 400 µM in [3] (Ovarian carcinoma cell); more than 400 µM in [4] (Homo sapiens); 79.6 µM in series [5] (Homo sapiens); 32.7 µM in series [6] (Homo sapiens, MCF7, 48 h); 189 µM in series [7] (Homo sapiens, H7402, 48 h); more than 400 µM in series [8] (Homo sapiens). In series [9] (Homo sapiens, K562, 48 h), this molecule showed a 50% effective concentration (EC50) of more than 400 µM.

`CC(C)C[C@H](NC(=O)[C@@H](O)[C@H](N)Cc1ccccc1)C(=O)N[C@@H](C)C(=O)OCn1cc(F)c(=O)[nH]c1=O.Cl` [BC-03, (S)-(5-fluoro-2,4-dioxo-3,4-dihydropyrimidinyl-1(2H))methyl-2-((S)-2-((2S,3R)-3-amino-2-hydroxy-4-phenylbutanamido)-4-methylpentanamido)propanoate hydrochloride]: in series [1], the “inhibitory activity against aminopeptidase N compared with positive control ubenimex” value was “much more potent than the positive control drug ubenimex” and the IC50 was 0.36 µM.
